Source: patent publication US20080268483A1, “Methods for a Global Assay of Coagulation and Fibrinolysis” (The Regents of the University of Colorado, priority 2004, published 2008)

Tests used:
[1] = test system: standard normal pooled plasma; assay: CloFAL assay, altered fibrinolysis studies in treated standard normal pooled plasma; assay type: biochemical, human; settings: TAFIa inhibition by PTCI, final plasma concentration 50 μg/mL
Method: Frozen plasma aliquots were thawed in a 37° C. water bath for three minutes. […] Plasma samples (fresh or freeze-thawed) were maintained for up to 30 minutes in an ice-water bath until time of assay. […]
The kinetic absorbance data was exported to Microsoft Excel and absorbance measurements at each time point were averaged for the triplicate runs of each specimen. Using the averaged absorbance for the specimen, the maximum amplitude of rise in absorbance was determined (MA=maximum absorbance minus baseline absorbance, where baseline absorbance was obtained by averaging the third through eighth kinetic readings). […]

[2] = test system: standard normal pooled plasma; assay: CloFAL assay, heparin studies and heparinase reversal; assay type: biochemical, human
Text: The assay described here was modified from those of He et al. (1999) and Smith et al. (2003). As compared to that by Smith et al., which evaluates only fibrinolysis, the CloFAL assay permits assessment of coagulability as well. Furthermore, when compared to the global assay of He et al., the CloFAL assay permits testing with a single reagent to evaluate both coagulation and fibrinolysis, rather than requiring (as does that of He et al.) the preparation of two distinct reagents for separate evaluation of the plasma sample. […] Frozen plasma aliquots were thawed in a 37° C. water bath for three minutes. […]
For each patient sample to be analyzed, 75 μL of freeze-thawed or fresh plasma was dispensed into each of three wells in a round-bottom, 96-well, Nunc assay plate (Fisher Scientific, Santa Clara, Calif.), and then pre-warmed at 37° C. for three minutes. […] The plate was then immediately placed in an eight-channel microplate spectrophotometer (PowerWave HT, Bio-Tek Instruments, Winooski, Vt.) for dual kinetic absorbance measurements at 405 nm and 630 nm at 45-second intervals for 3 hours, following an initial five-second mixing step prior to the first reading. The spectrophotometer interfaced with a computer such that all its operations, including continuous analysis of delta-absorbance (405 nm minus 630 nm) data using KC4™ PC software, may be automated. […]

rise in absorbance of the CloFAL curve ([2]; heparin at 2 U/mL in standard normal pooled plasma) | rise in absorbance of the CloFAL curve ([2]; heparin concentrations of as little as 0.1 U/mL) | Substance | FI (fibrinolytic index) [1] | duration of the first phase of decline in turbidity in the CloFAL curve [1]
 |  | PTCI: potato tuber carboxypeptidase inhibitor (Sigma-Aldrich), blocks TAFI activation to enhance fibrinolysis (QQHADPICNKPCKTHDDCSGAWFCQACWNSARTCGPYVG; UniProt P01075 1-39, looked up) | increased | prolonged
greatly prevented | prolongation and attenuation | heparin |  | 
